{
  "source": "BindingDB's records for doi:10.1021/jm970389+",
  "about": "(Abbott Laboratories, 1998)",
  "data": [
    {"assay": "Binding potency against Platelet activating factor (PAF) receptor using [3H]C18-PAF as radioligand on rabbit platelet membranes", "units": {"Ki": "nM"}, "values": [
      {"smiles": "CCOCCn1cc(C(=O)c2ccc(Cn3c(C)nc4cnccc43)cc2)c2c(C(=O)OC)cccc21", "note": "[1-(2-Ethoxy-ethyl)-3-[4-(2-methyl-imidazo[4,5-c]pyridin-1-ylmethyl)-benzoyl]-1H-indole-4-carboxylic acid methyl ester]", "Ki": 1.1},
      {"smiles": "COC(=O)c1cccc2c1c(C(=O)c1ccc(Cn3c(C)nc4cnccc43)cc1)cn2CC(=O)C(C)(C)C", "note": "[1-(3,3-Dimethyl-2-oxo-butyl)-3-[4-(2-methyl-imidazo[4,5-c]pyridin-1-ylmethyl)-benzoyl]-1H-indole-4-carboxylic acid methyl ester]", "Ki": 0.67},
      {"smiles": "COC(=O)c1cccc2c1c(C(=O)c1ccc(Cn3c(C)nc4cnccc43)cc1)cn2C(N)=O", "note": "[1-Carbamoyl-3-[4-(2-methyl-imidazo[4,5-c]pyridin-1-ylmethyl)-benzoyl]-1H-indole-4-carboxylic acid methyl ester]", "Ki": 1.5},
      {"smiles": "COC(=O)c1cccc2c1c(C(=O)c1ccc(Cn3c(C)nc4cnccc43)c(F)c1)cn2C(=O)N(C)C", "note": "[1-Dimethylcarbamoyl-3-[3-fluoro-4-(2-methyl-imidazo[4,5-c]pyridin-1-ylmethyl)-benzoyl]-1H-indole-4-carboxylic acid methyl ester]", "Ki": 5},
      {"smiles": "COC(=O)c1cccc2c1c(C(=O)c1ccc(Cn3c(C)nc4c(C)nc(C)cc43)cc1)cn2C(=O)N(C)C", "note": "[1-Dimethylcarbamoyl-3-[4-(2,4,6-trimethyl-imidazo[4,5-c]pyridin-1-ylmethyl)-benzoyl]-1H-indole-4-carboxylic acid methyl ester]", "Ki": 120},
      {"smiles": "COC(=O)c1cccc2c1c(C(=O)c1ccc(Cn3c(C)nc4c(=O)[nH]ccc43)cc1)cn2C(=O)N(C)C", "note": "[1-Dimethylcarbamoyl-3-[4-(2-methyl-4-oxo-4,5-dihydro-imidazo[4,5-c]pyridin-1-ylmethyl)-benzoyl]-1H-indole-4-carboxylic acid methyl ester]", "Ki": 4},
      {"smiles": "COC(=O)c1cccc2c1c(C(=O)c1ccc(Cn3c(C)nc4c[n+]([O-])ccc43)cc1)cn2C(=O)N(C)C", "note": "[1-Dimethylcarbamoyl-3-[4-(2-methyl-5-oxy-imidazo[4,5-c]pyridin-1-ylmethyl)-benzoyl]-1H-indole-4-carboxylic acid methyl ester]", "Ki": 23},
      {"smiles": "COC(=O)c1cccc2c1c(C(=O)c1ccc(Cn3c(C)nc4ccccc43)cc1)cn2C(=O)N(C)C", "note": "[1-Dimethylcarbamoyl-3-[4-(2-methyl-benzoimidazol-1-ylmethyl)-benzoyl]-1H-indole-4-carboxylic acid methyl ester]", "Ki": 0.92},
      {"smiles": "COC(=O)c1cccc2c1c(C(=O)c1ccc(Cn3c(C)nc4ncccc43)cc1)cn2C(=O)N(C)C", "note": "[1-Dimethylcarbamoyl-3-[4-(2-methyl-imidazo[4,5-b]pyridin-1-ylmethyl)-benzoyl]-1H-indole-4-carboxylic acid methyl ester]", "Ki": 2.9},
      {"smiles": "COC(=O)c1cccc2c1c(C(=O)c1ccc(Cn3c(C)nc4cccnc43)cc1)cn2C(=O)N(C)C", "note": "[1-Dimethylcarbamoyl-3-[4-(2-methyl-imidazo[4,5-b]pyridin-3-ylmethyl)-benzoyl]-1H-indole-4-carboxylic acid methyl ester]", "Ki": 10},
      {"smiles": "COC(=O)c1cccc2c1c(S(=O)(=O)c1ccc(Cn3c(C)nc4cnccc43)cc1)cn2C(=O)N(C)C", "note": "[1-Dimethylcarbamoyl-3-[4-(2-methyl-imidazo[4,5-c]pyridin-1-ylmethyl)-benzenesulfonyl]-1H-indole-4-carboxylic acid methyl ester]", "Ki": 13},
      {"smiles": "CCOC(=O)c1cccc2c1c(C(=O)c1ccc(Cn3c(C)nc4cnccc43)cc1)cn2C(=O)N(C)C", "note": "[1-Dimethylcarbamoyl-3-[4-(2-methyl-imidazo[4,5-c]pyridin-1-ylmethyl)-benzoyl]-1H-indole-4-carboxylic acid ethyl ester]", "Ki": 5.2},
      {"smiles": "Cc1nc2cnccc2n1Cc1ccc(C(=O)c2cn(C(=O)N(C)C)c3cccc(C(=O)OC(C)C)c23)cc1", "note": "[1-Dimethylcarbamoyl-3-[4-(2-methyl-imidazo[4,5-c]pyridin-1-ylmethyl)-benzoyl]-1H-indole-4-carboxylic acid isopropyl ester]", "Ki": 4.7},
      {"smiles": "Cc1nc2cnccc2n1Cc1ccc(C(=O)c2cn(C(=O)N(C)C)c3cccc(C(=O)O)c23)cc1", "note": "[1-Dimethylcarbamoyl-3-[4-(2-methyl-imidazo[4,5-c]pyridin-1-ylmethyl)-benzoyl]-1H-indole-4-carboxylic acid]", "Ki": 14},
      {"smiles": "COC(=O)c1ccc2c(c1)c(C(=O)c1ccc(Cn3c(C)nc4cnccc43)cc1)cn2C(=O)N(C)C", "note": "[1-Dimethylcarbamoyl-3-[4-(2-methyl-imidazo[4,5-c]pyridin-1-ylmethyl)-benzoyl]-1H-indole-5-carboxylic acid methyl ester]", "Ki": 110},
      {"smiles": "COC(=O)c1cc(C#Cc2ccccc2)cc2c1c(C(=O)c1ccc(Cn3c(C)nc4cnccc43)cc1)cn2C(=O)N(C)C", "note": "[1-Dimethylcarbamoyl-3-[4-(2-methyl-imidazo[4,5-c]pyridin-1-ylmethyl)-benzoyl]-6-phenylethynyl-1H-indole-4-carboxylic acid methyl ester]", "Ki": 0.95},
      {"smiles": "COC(=O)c1cccc2c1c(C(=O)C1CCC(Cn3c(C)nc4cnccc43)CC1)cn2C(=O)N(C)C", "note": "(stereo not drawn) [1-Dimethylcarbamoyl-3-[4-(2-methyl-imidazo[4,5-c]pyridin-1-ylmethyl)-cyclohexanecarbonyl]-1H-indole-4-carboxylic acid methyl ester]", "Ki": 2.4},
      {"smiles": "COC(=O)c1cccc2c1c(C(=O)c1ccc(Cn3ccc4nc(C)nc-4c3)cc1)cn2C(=O)N(C)C", "note": "[1-Dimethylcarbamoyl-3-[4-(2-methyl-imidazo[4,5-c]pyridin-5-ylmethyl)-benzoyl]-1H-indole-4-carboxylic acid methyl ester]", "Ki": "> 1000"},
      {"smiles": "COC(=O)c1cccc2c1c(C(=O)CCCCn1c(C)nc3cnccc31)cn2C(=O)N(C)C", "note": "[1-Dimethylcarbamoyl-3-[5-(2-methyl-imidazo[4,5-c]pyridin-1-yl)-pentanoyl]-1H-indole-4-carboxylic acid methyl ester]", "Ki": 11},
      {"smiles": "COC(=O)c1cccc2c1c(C(=O)c1ccc(Cn3c(C)nc4cnccc43)s1)cn2C(=O)N(C)C", "note": "[1-Dimethylcarbamoyl-3-[5-(2-methyl-imidazo[4,5-c]pyridin-1-ylmethyl)-thiophene-2-carbonyl]-1H-indole-4-carboxylic acid methyl ester]", "Ki": 8.2},
      {"smiles": "COC(=O)c1cccc2c1c(C(=O)CCCCCn1c(C)nc3cnccc31)cn2C(=O)N(C)C", "note": "[1-Dimethylcarbamoyl-3-[6-(2-methyl-imidazo[4,5-c]pyridin-1-yl)-hexanoyl]-1H-indole-4-carboxylic acid methyl ester]", "Ki": 6.1},
      {"smiles": "COC(=O)c1cccc2c1c(C(=O)CCCCCCn1c(C)nc3cnccc31)cn2C(=O)N(C)C", "note": "[1-Dimethylcarbamoyl-3-[7-(2-methyl-imidazo[4,5-c]pyridin-1-yl)-heptanoyl]-1H-indole-4-carboxylic acid methyl ester]", "Ki": 9.4},
      {"smiles": "COC(=O)c1cccc2c1c(C(=O)Cc1ccc(-n3c(C)nc4cnccc43)cc1)cn2C(=O)N(C)C", "note": "[1-Dimethylcarbamoyl-3-{2-[4-(2-methyl-imidazo[4,5-c]pyridin-1-yl)-phenyl]-acetyl}-1H-indole-4-carboxylic acid methyl ester]", "Ki": 0.63},
      {"smiles": "COC(=O)c1cc(-c2ccc(F)cc2)cc2c1c(C(=O)c1ccc(Cn3c(C)nc4cnccc43)cc1)cn2C(=O)N(C)C", "note": "[1-Dimethylcarbamoyl-6-(4-fluoro-phenyl)-3-[4-(2-methyl-imidazo[4,5-c]pyridin-1-ylmethyl)-benzoyl]-1H-indole-4-carboxylic acid methyl ester]", "Ki": 0.15},
      {"smiles": "COC(=O)c1cccc2c1c(C(=O)c1ccc(Cn3c(C)nc4cnccc43)cc1)cn2CC(=O)N(C)C", "note": "[1-Dimethylcarbamoylmethyl-3-[4-(2-methyl-imidazo[4,5-c]pyridin-1-ylmethyl)-benzoyl]-1H-indole-4-carboxylic acid methyl ester]", "Ki": 4.4},
      {"smiles": "COC(=O)c1cccc2c1c(C(=O)c1ccc(Cn3c(C)nc4cnccc43)cc1)cn2S(=O)(=O)N(C)C", "note": "[1-Dimethylsulfamoyl-3-[4-(2-methyl-imidazo[4,5-c]pyridin-1-ylmethyl)-benzoyl]-1H-indole-4-carboxylic acid methyl ester]", "Ki": 4.3},
      {"smiles": "COC(=O)c1cccc2c1c(C(=O)c1ccc(Cn3c(C)nc4cnccc43)cc1)cn2C(C)C", "note": "[1-Isopropyl-3-[4-(2-methyl-imidazo[4,5-c]pyridin-1-ylmethyl)-benzoyl]-1H-indole-4-carboxylic acid methyl ester]", "Ki": 1.3},
      {"smiles": "CNC(=O)n1cc(C(=O)c2ccc(Cn3c(C)nc4cnccc43)cc2)c2c(C(=O)OC)cccc21", "note": "[1-Methylcarbamoyl-3-[4-(2-methyl-imidazo[4,5-c]pyridin-1-ylmethyl)-benzoyl]-1H-indole-4-carboxylic acid methyl ester]", "Ki": 1.5},
      {"smiles": "CCOCCn1cc(C(=O)CN2CCC(n3c(C)nc4cnccc43)CC2)c2c(Cl)cccc21", "note": "[1-[4-Chloro-1-(2-ethoxy-ethyl)-1H-indol-3-yl]-2-[4-(2-methyl-imidazo[4,5-c]pyridin-1-yl)-piperidin-1-yl]-ethanone]", "Ki": 15},
      {"smiles": "COC(=O)c1cccc2c1c(C(=O)c1ccc(Cn3c(C)nc4ccccc43)cc1)cn2C(=O)N1CCCC1", "note": "[3-[4-(2-Methyl-benzoimidazol-1-ylmethyl)-benzoyl]-1-(pyrrolidine-1-carbonyl)-1H-indole-4-carboxylic acid methyl ester]", "Ki": 1.7},
      {"smiles": "Cc1nc2cnccc2n1Cc1ccc(S(=O)(=O)c2cn(C(=O)N(C)C)c3ccccc23)cc1", "note": "[3-[4-(2-Methyl-imidazo[4,5-c]pyridin-1-ylmethyl)-benzenesulfonyl]-indole-1-carboxylic acid dimethylamide]", "Ki": 12},
      {"smiles": "COC(=O)c1cccc2c1c(C(=O)c1ccc(Cn3c(C)nc4cnccc43)cc1)cn2S(=O)(=O)C(C)C", "note": "[3-[4-(2-Methyl-imidazo[4,5-c]pyridin-1-ylmethyl)-benzoyl]-1-(propane-2-sulfonyl)-1H-indole-4-carboxylic acid methyl ester]", "Ki": 0.19},
      {"smiles": "COC(=O)c1cccc2c1c(C(=O)c1ccc(Cn3c(C)nc4cnccc43)cc1)cn2C(=O)N1CCCC1", "note": "[3-[4-(2-Methyl-imidazo[4,5-c]pyridin-1-ylmethyl)-benzoyl]-1-(pyrrolidine-1-carbonyl)-1H-indole-4-carboxylic acid methyl ester]", "Ki": 11}
    ]}
  ]
}
